Source: ChEMBL document CHEMBL1201862, “PubChem BioAssay data set” (2004)
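The compound was tested at five concentrations on cells cultured in 96-well plates, with a 48-hour exposure period. Abbreviation: GI50, concentration required for 50% inhibition of growth.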 Activity calls are given as the source filed them. Rule as the data show it: active = GI50 up to about 1.1 µM and inactive = higher.

Columns and labels:
Assay in all cases: NCI anticancer screen, dose series, 48 h
786-0 = test system: 786-0
A498 = test system: A498
A549 = test system: A549
ACHN = test system: ACHN
CAKI-1 = test system: CAKI-1
COLO 205 = test system: COLO 205
DLD-1 = test system: DLD-1
DMS-114 = test system: DMS-114
DMS-273 = test system: DMS-273
EKVX = test system: EKVX
HCC 2998 = test system: HCC 2998
HCT-116 = test system: HCT-116
HCT-15 = test system: HCT-15
HL-60 = test system: HL-60
HOP-18 = test system: HOP-18
HOP-62 = test system: HOP-62
HOP-92 = test system: HOP-92
HT-29 = test system: HT-29
IGROV-1 = test system: IGROV-1
K562 = test system: K562
KM-20L2 = test system: KM-20L2
KM12 = test system: KM12
LOX IMVI = test system: LOX IMVI
LXFL 529 = test system: LXFL 529
M14 = test system: M14
M19-MEL = test system: M19-MEL
MOLT-4 = test system: MOLT-4
Malme-3M = test system: Malme-3M
NCI-H226 = test system: NCI-H226
NCI-H23 = test system: NCI-H23
NCI-H460 = test system: NCI-H460
NCI-H522 = test system: NCI-H522
OVCAR-3 = test system: OVCAR-3
OVCAR-4 = test system: OVCAR-4
OVCAR-5 = test system: OVCAR-5
OVCAR-8 = test system: OVCAR-8
RPMI-8226 = test system: RPMI-8226
RXF 393 = test system: RXF 393
RXF 631 = test system: RXF 631
SF-268 = test system: SF-268
SF-295 = test system: SF-295
SF-539 = test system: SF-539
SK-MEL-28 = test system: SK-MEL-28
SK-MEL-5 = test system: SK-MEL-5
SK-OV-3 = test system: SK-OV-3
SN12C = test system: SN12C
SNB-19 = test system: SNB-19
SNB-75 = test system: SNB-75
SNB-78 = test system: SNB-78
SR = test system: SR
SW-620 = test system: SW-620
TK-10 = test system: TK-10
U-251 = test system: U-251
UACC-257 = test system: UACC-257
UACC-62 = test system: UACC-62
UO-31 = test system: UO-31
XF498 = test system: XF498

SMILES: Cc1ccc(S(=O)OC2c3ccccc3Cc3ccccc32)cc1 (configuration not stated)
- GI50 (786-0): 21.7 µM (inactive)
- GI50 (A498): 21.9 µM (inactive)
- GI50 (A549): 27.3 µM (inactive)
- GI50 (ACHN): 22.4 µM (inactive)
- GI50 (CAKI-1): 17.3 µM (inactive)
- GI50 (COLO 205): 17.5 µM (inactive)
- GI50 (DLD-1): 22.9 µM (inactive)
- GI50 (DMS-114): 20.2 µM (inactive)
- GI50 (DMS-273): 17.5 µM (inactive)
- GI50 (EKVX): 18.6 µM (inactive)
- GI50 (HCC 2998): 19.1 µM (inactive)
- GI50 (HCT-116): 17.1 µM (inactive)
- GI50 (HCT-15): 19.9 µM
- GI50 (HL-60): 17.6 µM (inactive)
- GI50 (HOP-18): 24.8 µM (inactive)
- GI50 (HOP-62): 17.5 µM (inactive)
- GI50 (HOP-92): 17.2 µM (inactive)
- GI50 (HT-29): 32.1 µM (inactive)
- GI50 (IGROV-1): 21.6 µM (inactive)
- GI50 (K562): 17.7 µM (inactive)
- GI50 (KM-20L2): 19.9 µM (inactive)
- GI50 (KM12): 21.2 µM (inactive)
- GI50 (LOX IMVI): 14.4 µM (inactive)
- GI50 (LXFL 529): 16.4 µM (inactive)
- GI50 (M14): 18.6 µM (inactive)
- GI50 (M19-MEL): 21.1 µM (inactive)
- GI50 (MOLT-4): 19.2 µM (inactive)
- GI50 (Malme-3M): 13.1 µM (inactive)
- GI50 (NCI-H226): 18.5 µM (inactive)
- GI50 (NCI-H23): 18.6 µM (inactive)
- GI50 (NCI-H460): 22.3 µM (inactive)
- GI50 (NCI-H522): 13.9 µM (inactive)
- GI50 (OVCAR-3): 21.5 µM (inactive)
- GI50 (OVCAR-4): 17.8 µM (inactive)
- GI50 (OVCAR-5): 15.6 µM (inactive)
- GI50 (OVCAR-8): 15.6 µM (inactive)
- GI50 (RPMI-8226): 36.1 µM (inactive)
- GI50 (RXF 393): 13.3 µM (inactive)
- GI50 (RXF 631): 17.2 µM (inactive)
- GI50 (SF-268): 20.7 µM (inactive)
- GI50 (SF-295): 23.9 µM (inactive)
- GI50 (SF-539): 18.5 µM (inactive)
- GI50 (SK-MEL-28): 19.2 µM (inactive)
- GI50 (SK-MEL-5): 19.3 µM (inactive)
- GI50 (SK-OV-3): 19.5 µM (inactive)
- GI50 (SN12C): 20.3 µM (inactive)
- GI50 (SNB-19): 23.8 µM (inactive)
- GI50 (SNB-75): 17.9 µM (inactive)
- GI50 (SNB-78): 19.9 µM (inactive)
- GI50 (SR): 21.8 µM (inactive)
- GI50 (SW-620): 22.5 µM (inactive)
- GI50 (TK-10): 21.1 µM (inactive)
- GI50 (U-251): 27.6 µM (inactive)
- GI50 (UACC-257): 19.3 µM (inactive)
- GI50 (UACC-62): 17.7 µM (inactive)
- GI50 (UO-31): 18.3 µM (inactive)
- GI50 (XF498): 15.2 µM (inactive)
